Measured values as given in patent US20210024507A1, “Compounds” (Step Pharma S.A.S., priority 2018, published 2021).

molecular target: T1, human CTPS1 (Homo sapiens, UniProt P17812); assay: Human CTPS1 enzyme inhibition (ADP-Glo Max assay); type: biochemical; conditions: human full length CTPS1, 25° C., read-out: CTPS1 (Human CTPS1 Enzyme Inhibition, IC50 grouped by potency range)
T1 construct: purchased Proteros biostructures GmbH
T1 sequence (P17812 1-591): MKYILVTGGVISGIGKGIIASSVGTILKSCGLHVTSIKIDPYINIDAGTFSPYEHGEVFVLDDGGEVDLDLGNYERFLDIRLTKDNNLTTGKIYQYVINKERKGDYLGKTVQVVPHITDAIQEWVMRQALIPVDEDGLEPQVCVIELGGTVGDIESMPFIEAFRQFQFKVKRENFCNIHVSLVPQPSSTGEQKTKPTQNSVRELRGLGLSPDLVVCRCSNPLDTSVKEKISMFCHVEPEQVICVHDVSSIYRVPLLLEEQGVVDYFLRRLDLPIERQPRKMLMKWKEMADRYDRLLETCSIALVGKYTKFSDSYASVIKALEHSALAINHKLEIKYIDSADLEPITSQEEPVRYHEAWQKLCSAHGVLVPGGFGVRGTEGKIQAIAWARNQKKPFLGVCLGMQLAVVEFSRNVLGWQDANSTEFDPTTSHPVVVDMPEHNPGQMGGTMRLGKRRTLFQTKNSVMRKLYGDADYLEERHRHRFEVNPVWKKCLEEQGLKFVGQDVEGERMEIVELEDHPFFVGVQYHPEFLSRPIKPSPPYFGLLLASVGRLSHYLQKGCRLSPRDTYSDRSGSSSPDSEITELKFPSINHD
Protocol: The enzyme inhibitory activities of compounds invented against the target of interest were determined using the ADP-GIoTM Max assay (Promega, UK). Assays for human CTPS1 were performed in lx assay buffer containing 50mM Tris, 10mM MgCl2, 0.01% Tween-20, pH to 8.0 accordingly. Finally, immediately before use, L-cysteine was added to the lx assay buffer to a final concentration of 2mM. All reagents are from Sigma-Aldrich unless specified otherwise. Human full length active C-terminal FLAG-Hiss-tag CTPS1 (UniProtKB - P17812, CTPS[1-591]-[…]) was obtained from Proteros biostructures GmbH.
Assay Procedure 3× human CTPS1 protein was prepared in lx assay buffer to the final working protein concentration required for the reaction. A 2uL volume per well of 3x human CTPS1 protein was mixed with 2uL per well of 3× test compound (compound prepared in lx assay buffer to an appropriate final 3× compound concentration respective to the concentration response curve designed for the compounds under test) for 10 minutes at 25° C. The enzymatic reaction was then initiated by addition of a 2uL per well volume of a pre-mixed substrate mix (UltraPure ATP from ADP-GIo™ Max kit (0.31mM), GTP (0.034mM), UTP (0.48mM) and L-glutamine (0.186mM)) and the mixture was incubated for an appropriate amount of time within the determined linear phase of the reaction at 25° C. under sealed plate conditions with constant agitation at 500 revolutions per minute (rpm). ADP-GIo™ Max reagent was added for 60 minutes ([…] per well) and subsequently ADP-GIo™ Max development reagent was added for 60 minutes (12uL per well) prior to signal detection in a microplate reader (EnVision® Multilabel Reader, Perkin Elmer). Following each reagent addition over the course of the assay, assay plates were pulse centrifuged for 30 seconds at 500rpm.
In all cases, the enzyme converts ATP to ADP and the ADP-GIo™ Max reagent subsequently depletes any remaining endogenous ATP in the reaction system. The ADP-GIo™ Max detection reagent converts the ADP that has been enzymatically produced back into ATP and using ATP as a substrate together with luciferin for the enzyme luciferase, light is generated which produces a detectable luminescence. […] The percentage inhibition produced by each concentration of compound was calculated using the equation shown below: […]
(§1) Percentage inhibition was then plotted against compound concentration, and the 50% inhibitory concentration (IC50) was determined from the resultant concentration-response curve.

Question: How did the IC50 turn out when CCOc1cncc(-c2ccc(NC(=O)C(CC)c3nccc(NS(=O)(=O)C4CC4)n3)nc2)n1 (stereo not shown) [P208, 2-(4-(cyclopropanesulfonamido)pyrimidin-2-yl)-N-(5-(6-ethoxypyrazin-2-yl)pyridin-2-yl)butanamide] was run?
Answer: ≤ 100 nM

Question: Which IC50 does the source give for CCOc1cncc(-c2ccc(C(=O)NC(CC)c3ccnc(NS(=O)(=O)C4CC4)n3)nc2)n1 (stereo not shown) [P210, N-(1-(2-(cyclopropanesulfonamido)pyrimidin-4-yl)propyl)-5-(6-ethoxypyrazin-2-yl)picolinamide] here?
Answer: 100 to 1000 nM

Question: CCC(NC(=O)c1ccc(-c2cncc(C(F)(F)F)c2)cc1F)c1ccnc(NS(=O)(=O)C2CC2)n1 (stereo not shown) [P211, N-(1-(2-(cyclopropanesulfonamido)pyrimidin-4-yl)propyl)-2-fluoro-4-(5-(trifluoromethyl)pyridin-3-yl)benzamide] was tested. Which IC50 did it give?
Answer: 100 to 1000 nM

Question: Which IC50 does the source give for CCC(NC(=O)c1ccc(-c2cncc(Cl)c2)cc1F)c1ccnc(NS(=O)(=O)C2CC2)n1 (stereo not shown) [P212, 4-(5-chloropyridin-3-yl)-N-(1-(2-(cyclopropanesulfonamido)pyrimidin-4-yl)propyl)-2-fluorobenzamide] here?
Answer: 100 to 1000 nM

Question: Which IC50 does the source give for CCC(NC(=O)c1ccc(-c2cncc(C(F)(F)F)c2)cc1)c1ccnc(NS(=O)(=O)C2CC2)n1 (stereo not shown) [P213, N-(1-(2-(cyclopropanesulfonamido)pyrimidin-4-yl)propyl)-4-(5-(trifluoromethyl)pyridin-3-yl)benzamide] here?
Answer: 100 to 1000 nM

Question: Which IC50 does the source give for CCC(NC(=O)c1ccc(-c2cncc(Cl)c2)cc1)c1ccnc(NS(=O)(=O)C2CC2)n1 (stereo not shown) [P214, 4-(5-chloropyridin-3-yl)-N-(1-(2-(cyclopropanesulfonamido)pyrimidin-4-yl)propyl)benzamide] here?
Answer: 100 to 1000 nM

Question: For CCOc1cncc(-c2ccc(C(=O)NC(CC)c3ccnc(NS(=O)(=O)C4CC4)n3)c(C(F)(F)F)c2)n1 (stereo not shown) [P215, N-(1-(2-(cyclopropanesulfonamido)pyrimidin-4-yl)propyl)-4-(6-ethoxypyrazin-2-yl)-2-(trifluoromethyl)benzamide], which IC50 is on record?
Answer: 100 to 1000 nM

Question: Which IC50 does the source give for CCC(NC(=O)c1ccc(-c2cncc(C(F)(F)F)n2)cc1)c1ccnc(NS(=O)(=O)C2CC2)n1 (stereo not shown) [P217, N-(1-(2-(cyclopropanesulfonamido)pyrimidin-4-yl)propyl)-4-(6-(trifluoromethyl)pyrazin-2-yl)benzamide] here?
Answer: 100 to 1000 nM

Question: CCC(NC(=O)c1ccc(-c2cncc(OC(C)C)n2)cc1)c1ccnc(NS(=O)(=O)C2CC2)n1 (stereo not shown) [P218, N-(1-(2-(cyclopropanesulfonamido)pyrimidin-4-yl)propyl)-4-(6-isopropoxypyrazin-2-yl)benzamide] was tested. Which IC50 did it give?
Answer: ≤ 100 nM

Question: CCOc1cncc(-c2ccc(C(=O)NC(CC)c3ccnc(NS(=O)(=O)C4CC4)n3)cc2)n1 (stereo not shown) [P219, N-(1-(2-(cyclopropanesulfonamido)pyrimidin-4-yl)propyl)-4-(6-ethoxypyrazin-2-yl)benzamide] was tested. Which IC50 did it give?
Answer: 100 to 1000 nM

Question: How did the IC50 turn out when CCOc1cncc(-c2ccc(C(=O)NC(C)(CC)c3ccnc(NS(=O)(=O)C4CC4)n3)c(F)c2)n1 (stereo not shown) [P220, N-(2-(2-(cyclopropanesulfonamido)pyrimidin-4-yl)butan-2-yl)-4-(6-ethoxypyrazin-2-yl)-2-fluorobenzamide] was run?
Answer: 100 to 1000 nM

Question: For CCOc1cncc(-c2ccc(C(=O)NC(CC)c3cncc(NS(=O)(=O)C4CC4)n3)c(F)c2)n1 (stereo not shown) [P223, N-(1-(6-(cyclopropanesulfonamido)pyrazin-2-yl)propyl)-4-(6-ethoxypyrazin-2-yl)-2-fluorobenzamide], which IC50 is on record?
Answer: 100 to 1000 nM

system: human CTPS1; assay: RapidFire/MS-based enzyme selectivity assay, human CTPS1; type: biochemical; conditions: calculated from the CTPS1 and CTPS2 IC50 values
Protocol: The enzyme inhibitory activities against each target isoform of interest may be determined for the compounds of the invention using an optimised RapidFire high-throughput mass spectrometry (RF/MS) assay format. RF/MS assays for both human CTPS1 and CTPS2 may be performed in assay buffer consisting of 50mM HEPES (Merck), 20mM MgCl2, 5mM KCI, 1mM DTT, 0.01% Tween-20, pH to 8.0 accordingly. Human full-length active C-terminal FLAG-His-tag CTPS1 (UniProtKB - P17812, CTPS[1-591]-[…]) may be obtained from Proteros biostructures GmbH. Human full length active C-terminal FLAG-His-Avi tagged CTPS2 (UniProtKB-Q9NRF8, CTPS2 [1-586]- […]) may be obtained from Harker Bio.
Human CTPS (1 or 2) protein may be prepared in lx assay buffer to the final working protein concentration required for the reaction. A 2uL volume per well of 2× CTPS (1 or 2) protein may be mixed with 40nL of compound using acoustic (ECHO) delivery and incubated for 10 minutes at 25° C. Each isoform enzymatic reaction may be subsequently initiated by addition of 2uL per well of a 2× substrate mix in assay buffer. For hCTPS1: ATP (0.3mM), UTP (0.2mM), GTP (0.07mM) and L-glutamine (0.1mM). For hCTPS2: ATP (0.1mM), UTP (0.04mM), GTP (0.03mM) and L-glutamine (0.1mM). Each mixture may be incubated for an appropriate amount of time per isoform within the determined linear phase of the reaction at 25° C. A 60uL volume of stop solution (1% formic acid with 0.5uM ^13C9-^15N3-CTP in H2O) may be added and the plate immediately heat-sealed and centrifuged for 10 minutes at 4,000rpm. Following centrifugation, plates may be loaded onto the Agilent RapidFire microfluidic solid phase extraction system coupled to an AP14000 triple quadrupole mass spectrometer (RF/MS) for analysis.
In all cases, the enzyme converts UTP to CTP. Highly specific and sensitive multiple reaction monitoring (MRM) MS methods may be optimised for the detection of the enzymatic reaction product, CTP, and the stable isotope labelled product standard ^13C9-^15N3-CTP. Readout for data analysis may be calculated as the ratio between the peak area of the product CTP and the internal standard ^13C9-^15N3-CTP. For data reporting, the following equation may be used:
[formula] (R=ratio/readout, P=product signal area, IS=internal standard signal area)
For each screening plate, the means of the negative (DMSO) and positive control values were used for the calculation of the respective assay window (S/B) and Z′ values. The median of the respective control values was used for calculation of percent inhibition according to the following equation:
[formula] (I=Inhibition, Rneg=median of negative control readout values, Rpos=median of positive control readout values, Rsample=sample readout value)
as §1
Fold selectivity between CTPS1 and CTPS2 was subsequently calculated according to the following equation: […]

Question: Which “Selectivity (fold selectivity between CTPS1 and CTPS2)” value does the source give for CCOc1cncc(-c2ccc(NC(=O)C(C)(OC)c3cncc(NS(=O)(=O)C4CC4)n3)nc2)n1 (single isomer, unassigned) [P205a, 2-(6-(cyclopropanesulfonamido)pyrazin-2-yl)-N-(5-(6-ethoxypyrazin-2-yl)pyridin-2-yl)-2-methoxypropanamide] here?
Answer: +++ (>60 fold (+++))

Question: CCOc1cncc(-c2ccc(NC(=O)C(C)(OC)c3cncc(NS(=O)(=O)C4CC4)n3)nc2)n1 (single isomer, unassigned) [P205b, 2-(6-(cyclopropanesulfonamido)pyrazin-2-yl)-N-(5-(6-ethoxypyrazin-2-yl)pyridin-2-yl)-2-methoxypropanamide] was tested. Which “Selectivity (fold selectivity between CTPS1 and CTPS2)” value did it give?
Answer: ++ (>30-60 fold (++))

Question: For CCOc1cncc(-c2ccc(NC(=O)C3(c4ccnc(NS(=O)(=O)C5CC5)n4)CCCC3)cc2)n1 [P2, 1-(2-(Cyclopropanesulfonamido)pyrimidin-4-yl)-N-(4-(6-ethoxypyrazin-2-yl)phenyl)cyclopentanecarboxamide], which “Selectivity (fold selectivity between CTPS1 and CTPS2)” value is on record?
Answer: +++ (>60 fold (+++))

Question: Which “Selectivity (fold selectivity between CTPS1 and CTPS2)” value does the source give for CC(C)Oc1cncc(-c2ccc(NC(=O)C(C)(C)c3ccnc(NS(=O)(=O)C4CC4)n3)nc2)n1 [P9, 2-(2-(cyclopropanesulfonamido)pyrimidin-4-yl)-N-(5-(6-isopropoxypyrazin-2-yl)pyridin-2-yl)-2-methylpropanamide] here?
Answer: +++ (>60 fold (+++))

Question: Which “Selectivity (fold selectivity between CTPS1 and CTPS2)” value does the source give for CC(C)Oc1cncc(-c2ccc(NC(=O)Cc3ccnc(NS(=O)(=O)C4CC4)n3)c(F)c2)n1 [P12, 2-(2-(cyclopropanesulfonamido)pyrimidin-4-yl)-N-(2-fluoro-4-(6-isopropoxypyrazin-2-yl)phenyl)acetamide] here?
Answer: ++ (>30-60 fold (++))

Question: Which “Selectivity (fold selectivity between CTPS1 and CTPS2)” value does the source give for O=C(Cc1ccnc(NS(=O)(=O)C2CC2)n1)Nc1ccc(-c2cccnc2)cc1 [P16, 2-(2-(cyclopropanesulfonamido)pyrimidin-4-yl)-N-(4-(pyridin-3-yl)phenyl)acetamide] here?
Answer: ++ (>30-60 fold (++))

Question: With CCOc1cncc(-c2ccc(NC(=O)Cc3ccnc(NS(=O)(=O)C4CC4)n3)cc2)n1 [P18, 2-(2-(cyclopropanesulfonamido)pyrimidin-4-yl)-N-(4-(6-ethoxypyrazin-2-yl)phenyl)acetamide] as the molecule, how does the “Selectivity (fold selectivity between CTPS1 and CTPS2)” value read?
Answer: ++ (>30-60 fold (++))
